Measurements: US20220313693A1, “METHODS OF TREATING HIV IN PEDIATRIC PATIENTS WITH RILPIVIRINE” (priority 2019, published 2022)
Read-outs that look alike come from different tables or passages of the source.

Columns and labels:
[1] = adult and pediatric participants receiving abacavir in clinical studies; cited from earlier work
[2] = clinical; details: human, in vivo, 25 mg, mean ± SD, RPV 25 mg qd multiple dose; for AUC(0-t): AUC24h
[3] = Adults, pooled ECHO/THRIVE, RPV 25 mg qd, N=44; cited from earlier work
[4] = Intensive PK assessment of RPV at steady state, Phase II open-label trial in ARV-naive HIV-1 infected adolescents and children; details: RPV 25 mg qd multiple dose
[5] = Adolescents (Cohort 1, ≥12 to <18 years), N=23
[6] = Children ≥6-<12 years (Cohort 2), all bodyweights, N=10, preliminary analysis
[7] = Children ≥6-<12 years (Cohort 2), ≥25 kg only, N=5, preliminary analysis

| SMILES | Participants with hypersensitivity reactions [1] | AUC(0-t) [2, 5] [ng·h/mL] | AUC(0-t) [2, 6] [ng·h/mL] | AUC(0-t) [2, 7] [ng·h/mL] | Cmax [2, 6] [ng/mL] | Cmax [2, 7] [ng/mL] | AUC24h, mean ± SD [3] [ng·h/mL] | C0h (predose plasma concentration), mean ± SD [3] [ng/mL] | Cmax, mean ± SD [3] [ng/mL] | Cmin, mean ± SD [3] [ng/mL] | C0h (predose plasma concentration), mean ± SD [4, 5] [ng/mL] | Cmin, mean ± SD [4, 5] [ng/mL] | tmax, median [range] [4, 5] | C0h (predose plasma concentration), mean ± SD [4, 6] [ng/mL] | Cmin, mean ± SD [4, 6] [ng/mL] | C0h (predose plasma concentration), mean ± SD [4, 7] [ng/mL] | Cmin, mean ± SD [4, 7] [ng/mL] | tmax, median [range] [4, 7] |
| --- | --- | --- | --- | --- | --- | --- | --- | --- | --- | --- | --- | --- | --- | --- | --- | --- | --- | --- |
| Nc1nc(NC2CC2)c2ncn([C@H]3C=C[C@@H](CO)C3)c2n1 [abacavir] | approximately 5% |  |  |  |  |  |  |  |  |  |  |  |  |  |  |  |  |  |
| Cc1cc(/C=C/C#N)cc(C)c1Nc1ccnc(Nc2ccc(C#N)cc2)n1 [RPV, Rilpivirine] |  | 1870 ± 717 | 3020 ± 1610 | 2450 ± 735 | 182 ± 110 | 136 ± 46.1 | 2005 ± 970 | 67.6 ± 39.0 | 134 ± 72.0 | 53.7 ± 28.3 | 80.8 ± 40.4 | 57.1 ± 26.3 | 5.00 (2.00-9.03) h | 118 ± 61.5 | 77 ± 38.4 | 104 ± 57 | 74 ± 29.7 | 4.00 (1.97-9.00) h |
